Measured values reported in patent publication US20230407243A1, “GENETIC PLATFORM TO INVESTIGATE THE FUNCTIONS OF BACTERIAL DRUG EFFLUX PUMPS” (priority 2022, published 2023).
Where two headings read alike, the source gives them in different places.

Experiments:
Assay type in all cases: cell-based, Escherichia coli
wild-type (WT) K-12-Pore = assay: microbe, parasite or virus in culture; conditions: Escherichia coli, technical duplicate
Procedure, shortened: (§1)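 MIC values come from background-corrected OD600 readings (pre-incubation OD subtracted) after 18 h at 37 °C and 900 rpm in MHB II. Compounds were tested in duplicate as 2-fold dilutions. The inoculum came from 18 h LB cultures adjusted to OD600 ~1.0 and diluted 1/2000, and the pore-bearing strains were vancomycin-checked beforehand.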

ΔtolC-Pore = assay: microbe, parasite or virus in culture; conditions: for MIC: Escherichia coli, 18 h, read-out: Minimum inhibitory concentration, ΔtolC-Pore; for Minimum inhibitory concentration (MIC), Pore ΔtolC: Table 10, with pore, technical duplicate
Procedure, shortened: as §1

E. coli ΔtolC = assay: microbe, parasite or virus in culture; conditions: for MIC: Escherichia coli, 18 h, read-out: Minimum Inhibitory Concentration, ΔtolC; for Minimum inhibitory concentration (MIC), ΔtolC: Table 10, without pore, technical duplicate
Procedure, shortened: (§2)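 MIC derived from pre-incubation-corrected OD600 after 18 h growth at 37° C. (900 rpm) in MHB II. Inoculum was cells from 18 h LB culture adjusted to OD600 ~1.0 in PBS, then diluted 1/2000; compounds two-fold serially titrated in duplicate, DMSO as solvent control.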

[1] = tested on: wild-type E. coli K-12 str. BW25113; assay: microbe, parasite or virus in culture; conditions: Escherichia coli, BW25113, technical duplicate
Procedure, shortened: as §2

E. coli EKO-35 = assay: microbe, parasite or virus in culture; conditions: for Fold change of MICs: EKO-35 compared to EKO-35 (reference); for MIC: Escherichia coli, EKO35, technical duplicate
Procedure, shortened: as §2

EKO-35-Pore = assay: MIC susceptibility profiling, porinated strain; conditions: for Fold changes of MICs: EKO-35-Pore compared to EKO-35-Pore (reference); for MIC: Escherichia coli, technical duplicate
Procedure, shortened: as §1

EKO-35 araC::mdtBC = assay: MIC susceptibility profiling, efflux platform; conditions: for Fold change of MICs: EKO-35 araC::mdtBC compared to EKO-35; for MIC: Escherichia coli, Table 13B, non-porinated, technical duplicate, read-out: Minimum Inhibitory Concentration, EKO-35 araC::mdtBC
Procedure, shortened: as §2

EKO-35 araC::mdtEF = assay: MIC susceptibility profiling, efflux platform; conditions: for Fold change of MICs: EKO-35 araC::mdtEF compared to EKO-35; for MIC: Escherichia coli, Table 13A, non-porinated, technical duplicate, read-out: Minimum Inhibitory Concentration, EKO-35 araC::mdtEF
Procedure, shortened: as §2

EKO-35 araC::acrD Pore = assay: MIC susceptibility profiling, porinated efflux platform; conditions: for Fold changes of MICs: EKO-35 araC::acrD Pore compared to EKO-35-Pore; for MIC: Escherichia coli, Table 14A, porinated, technical duplicate, read-out: Minimum inhibitory concentration, EKO-35 araC::acrD Pore
Procedure, shortened: as §1

EKO-35 araC::mdtEF Pore = assay: as above; conditions: for Fold changes of MICs: EKO-35 araC::mdtEF Pore compared to EKO-35-Pore; for MIC: Escherichia coli, Table 14A, porinated, technical duplicate, read-out: Minimum inhibitory concentration, EKO-35 araC::mdtEF Pore
Procedure, shortened: as §1

EKO-35 araC::emrAB Pore = assay: as above; conditions: for Fold changes of MICs: EKO-35 araC::emrAB Pore compared to EKO-35-Pore; for MIC: Escherichia coli, EKO-35 araC::emrAB Pore, technical duplicate, read-out: Minimum inhibitory concentration
Procedure, shortened: as §1

EKO-35 araC::mexCD Pore = assay: as above; conditions: for Fold changes of MICs: EKO-35 araC::mexCD Pore compared to EKO-35-Pore; for MIC: Escherichia coli, EKO-35 araC::mexCD Pore, technical duplicate, read-out: Minimum inhibitory concentration
Procedure, shortened: as §1

EKO-35 araC::acrB Pore = assay: as above; conditions: for Fold changes of MICs: EKO-35 araC::acr-B Pore compared to EKO-35-Pore; for MIC: Escherichia coli, Table 14A, porinated, technical duplicate, read-out: Minimum inhibitory concentration, EKO-35 araC::acrB Pore
Procedure, shortened: as §1

EKO-35 araC::acrEF Pore = assay: as above; conditions: for Fold changes of MICs: EKO-35 araC::acrEF Pore compared to EKO-35-Pore; for MIC: Escherichia coli, Table 14A, porinated, technical duplicate, read-out: Minimum inhibitory concentration, EKO-35 araC::acrEF Pore
Procedure, shortened: as §1

EKO-35 araC::mdtBC Pore = assay: as above; conditions: for Fold changes of MICs: EKO-35 araC::mdtBC Pore compared to EKO-35-Pore; for MIC: Escherichia coli, EKO-35 araC::mdtBC Pore, technical duplicate, read-out: Minimum inhibitory concentration
Procedure, shortened: as §1

EKO-35 araC::macAB Pore = assay: as above; conditions: for Fold changes of MICs: EKO-35 araC::macAB Pore compared to EKO-35-Pore; for MIC: Escherichia coli, EKO-35 araC::macAB Pore, technical duplicate, read-out: Minimum inhibitory concentration
Procedure, shortened: as §1

EKO-35 araC::emrKY Pore = assay: as above; conditions: for Fold changes of MICs: EKO-35 araC::emrKY Pore compared to EKO-35-Pore; for MIC: Escherichia coli, EKO-35 araC::emrKY Pore, technical duplicate, read-out: Minimum inhibitory concentration
Procedure, shortened: as §1

[2] = tested on: EKO-35 araC::acrBD408A Pore; assay: as above; conditions: for Fold changes of MICs: EKO-35 araC::acrBD408A Pore compared to EKO-35-Pore; for MIC: Escherichia coli, EKO-35 araC::acrBD408A Pore, technical duplicate, read-out: Minimum inhibitory concentration
Procedure, shortened: as §1

[3] = Table 10, with pore, read-out: Minimum inhibitory concentration (MIC), Pore K-12
[4] = Table 14A, porinated, read-out: Minimum inhibitory concentration, K-12 (WT)-Pore
[5] = Table 10, without pore, read-out: Minimum inhibitory concentration (MIC), K-12
[6] = Table 13A, non-porinated, read-out: Minimum Inhibitory Concentration, K-12
[7] = Table 10, without pore, read-out: Minimum inhibitory concentration (MIC), EKO-35
[8] = Table 13A, non-porinated, read-out: Minimum Inhibitory Concentration, EKO-35
[9] = Table 10, with pore, read-out: Minimum inhibitory concentration (MIC), Pore EKO-35
[10] = Table 14A, porinated, read-out: Minimum inhibitory concentration, EKO-35-Pore

Row | SMILES | MIC (wild-type (WT) K-12-Pore; [3]) | MIC (wild-type (WT) K-12-Pore; [4]) | MIC (ΔtolC-Pore) | Minimum inhibitory concentration (MIC), Pore ΔtolC (ΔtolC-Pore) | MIC (E. coli ΔtolC) | Minimum inhibitory concentration (MIC), ΔtolC (E. coli ΔtolC) | MIC [1, 5] | MIC [1, 6] | Fold change of MICs (E. coli EKO-35) | MIC (E. coli EKO-35; [7]) | MIC (E. coli EKO-35; [8]) | Fold changes of MICs (EKO-35-Pore) | MIC (EKO-35-Pore; [9]) | MIC (EKO-35-Pore; [10]) | Fold change of MICs (EKO-35 araC::mdtBC) | MIC (EKO-35 araC::mdtBC) | MIC (EKO-35 araC::mdtEF) | Fold changes of MICs (EKO-35 araC::acrD Pore) | MIC (EKO-35 araC::acrD Pore) | Fold changes of MICs (EKO-35 araC::mdtEF Pore) | other results
1 | CC[n+]1c(-c2ccccc2)c2cc(N)ccc2c2ccc(N)cc21 [ethidium bromide] | 100 µg/mL | 100 µg/mL | 3.12 µg/mL | 3.125 µg/mL | 3.12 µg/mL | 3.125 µg/mL | 100 µg/mL | 100 µg/mL | 1 fold | 0.195 µg/mL | 0.195 µg/mL | 1 fold | 0.098 µg/mL | 0.098 µg/mL | 1 fold | 0.195 µg/mL | 1.56 µg/mL | 2 fold | 0.195 µg/mL | 8 fold | Fold change of MICs (EKO-35 araC::mdtEF): 8 fold; MIC (EKO-35 araC::mdtEF Pore): 0.781 µg/mL; Fold changes of MICs (EKO-35 araC::emrAB Pore): 1 fold; MIC (EKO-35 araC::emrAB Pore): 0.098 µg/mL; Fold changes of MICs (EKO-35 araC::mexCD Pore): 8 fold; MIC (EKO-35 araC::mexCD Pore): 0.781 µg/mL; Fold changes of MICs (EKO-35 araC::acrB Pore): 64 fold; MIC (EKO-35 araC::acrB Pore): 6.25 µg/mL; Fold changes of MICs (EKO-35 araC::acrEF Pore): 16 fold; MIC (EKO-35 araC::acrEF Pore): 1.56 µg/mL; Fold changes of MICs (EKO-35 araC::mdtBC Pore): 1 fold; MIC (EKO-35 araC::mdtBC Pore): 0.098 µg/mL; Fold changes of MICs (EKO-35 araC::macAB Pore): 1 fold; MIC (EKO-35 araC::macAB Pore): 0.098 µg/mL; Fold changes of MICs (EKO-35 araC::emrKY Pore): 1 fold; MIC (EKO-35 araC::emrKY Pore): 0.098 µg/mL; Fold changes of MICs [2]: 1 fold; MIC [2]: 0.098 µg/mL
2 | C[C@@H]1O[C@@H]1P(=O)(O)O [fosfomycin] | 3.12 µg/mL | 3.12 µg/mL | 3.12 µg/mL | 3.125 µg/mL | 6.25 µg/mL | 6.25 µg/mL | 6.25 µg/mL | 6.25 µg/mL | 1 fold | 3.12 µg/mL | 3.12 µg/mL | 1 fold | 0.781 µg/mL | 0.781 µg/mL | 1 fold | 1.56 µg/mL | 1.56 µg/mL | 1 fold | 0.781 µg/mL | 1 fold | MIC (EKO-35 araC::mdtEF Pore): 0.781 µg/mL; Fold changes of MICs (EKO-35 araC::emrAB Pore): 2 fold; MIC (EKO-35 araC::emrAB Pore): 1.56 µg/mL; Fold changes of MICs (EKO-35 araC::mexCD Pore): 2 fold; MIC (EKO-35 araC::mexCD Pore): 1.56 µg/mL; Fold changes of MICs (EKO-35 araC::acrB Pore): 1 fold; MIC (EKO-35 araC::acrB Pore): 0.781 µg/mL; Fold changes of MICs (EKO-35 araC::acrEF Pore): 2 fold; MIC (EKO-35 araC::acrEF Pore): 1.56 µg/mL; Fold changes of MICs (EKO-35 araC::mdtBC Pore): 1 fold; MIC (EKO-35 araC::mdtBC Pore): 0.781 µg/mL; Fold changes of MICs (EKO-35 araC::macAB Pore): 1 fold; MIC (EKO-35 araC::macAB Pore): 0.781 µg/mL; Fold changes of MICs (EKO-35 araC::emrKY Pore): 1 fold; MIC (EKO-35 araC::emrKY Pore): 0.781 µg/mL; Fold changes of MICs [2]: 1 fold; MIC [2]: 0.781 µg/mL
3 | CC(=O)O[C@H]1C[C@@]2(C)[C@@H](C[C@@H](O)[C@H]3[C@@]4(C)CC[C@@H](O)[C@@H](C)[C@@H]4CC[C@@]32C)/C1=C(\CCC=C(C)C)C(=O)O [fusidic acid] | 100 µg/mL | 100 µg/mL | 0.391 µg/mL | 0.391 µg/mL | 3.12 µg/mL | 3.125 µg/mL | 400 µg/mL | 400 µg/mL | 1 fold | 3.12 µg/mL | 3.12 µg/mL | 1 fold | 0.391 µg/mL | 0.391 µg/mL | 2 fold | 6.25 µg/mL | 50 µg/mL | 32 fold | 12.5 µg/mL | 8 fold | Fold change of MICs (EKO-35 araC::mdtEF): 16 fold; MIC (EKO-35 araC::mdtEF Pore): 3.12 µg/mL; Fold changes of MICs (EKO-35 araC::emrAB Pore): 4 fold; efflux pump-mediated resistance vs EKO-35-Pore (EKO-35 araC::emrAB Pore; EmrAB, porinated strain): associated with resistance; MIC (EKO-35 araC::emrAB Pore): 1.56 µg/mL; Fold changes of MICs (EKO-35 araC::mexCD Pore): 4 fold; MIC (EKO-35 araC::mexCD Pore): 1.56 µg/mL; Fold changes of MICs (EKO-35 araC::acrB Pore): 256 fold; Fold changes of MICs (EKO-35 araC::acrEF Pore): 32 fold; MIC (EKO-35 araC::acrEF Pore): 12.5 µg/mL; Fold changes of MICs (EKO-35 araC::mdtBC Pore): 1 fold; MIC (EKO-35 araC::mdtBC Pore): 0.391 µg/mL; Fold changes of MICs (EKO-35 araC::macAB Pore): 1 fold; MIC (EKO-35 araC::macAB Pore): 0.391 µg/mL; Fold changes of MICs (EKO-35 araC::emrKY Pore): 1 fold; MIC (EKO-35 araC::emrKY Pore): 0.391 µg/mL; Fold changes of MICs [2]: 1 fold; MIC [2]: 0.391 µg/mL
